These results are taken from patent US8940716B2, “Bicyclic heteroaryl compounds as GPR119 modulators” (Bristol-Myers Squibb Company, priority 2010, dated 2015).

pEC50: −log10 of the molar value.

The test system of test [1] is plasma glucose in male C57BL/6J mice. Kind of test: Mouse oral glucose tolerance test. Format: in vivo. As to the method:
Twenty four (24) male C57BL/6J mice (8-10 weeks old, average weight 28 g) were randomized into 4 groups (1 mouse/cage) of 6 mice per group based on fed plasma glucose and body weight. Prior to initiating the study, mice were fasted overnight and the next morning they were weighed and placed in the experimental lab. After 30 min in the environment, the mice were bled via tail tip at −60 min and immediately given their first oral administration of vehicle (40% PEG400, 10% Cremophor EL, 50% water) or compound solutions (5 ml/kg). At time 0 the mice were bled and given 50% glucose (2 g/kg) to initiate the oral glucose tolerance test (oGTT). The mice were bled 30, 60 and 120 min after the glucose load. Blood samples were drawn into potassium EDTA, placed on ice during the study and subsequently centrifuged for 10 min at 3000 rpm at 4° C. Plasma samples were diluted 11-fold for glucose analysis in the COBAS MIRA® System (Roche Diagnostics). Area under the curve was calculated from the plasma glucose time course data using the trapezoid rule with fasting plasma glucose as the baseline (GraphPad Prism Software). The statistical significance of the changes in the glucose AUCs resulting from the different treatments was determined by one-way ANOVA followed by Dunnett's test using the vehicle group as the control (JMP software, release 5.1.2). […]

The target of test [2] is T1, human-mouse chimeric GPR119 (Homo sapiens, UniProt Q8TDV5, A235T/C313R/C323Y/E253K/F304I/F307L/G211A/G245S/H255C/K284R/L224V/L258Q/L288Q/L301F/P218V/P318T/Q252H/R262K/S214P/S219N/S228A/S309P/S322A/T217S/T239S/V227I/V300F).
T1 construct: the first 198 amino acids of human GPR119; the C-terminal 137 amino acids of the mouse receptor; expressed in transfected cells
T1 sequence (Q8TDV5 with tags, fused parts or gaps G211A/S214P/T217S/P218V/S219N/L224V/V227I/S228A/A235T/T239S/G245S/Q252H/E253K/H255C/L258Q/R262K/K284R/L288Q/V300F/L301F/F304I/F307L/S309P/C313R/P318T/S322A/C323Y): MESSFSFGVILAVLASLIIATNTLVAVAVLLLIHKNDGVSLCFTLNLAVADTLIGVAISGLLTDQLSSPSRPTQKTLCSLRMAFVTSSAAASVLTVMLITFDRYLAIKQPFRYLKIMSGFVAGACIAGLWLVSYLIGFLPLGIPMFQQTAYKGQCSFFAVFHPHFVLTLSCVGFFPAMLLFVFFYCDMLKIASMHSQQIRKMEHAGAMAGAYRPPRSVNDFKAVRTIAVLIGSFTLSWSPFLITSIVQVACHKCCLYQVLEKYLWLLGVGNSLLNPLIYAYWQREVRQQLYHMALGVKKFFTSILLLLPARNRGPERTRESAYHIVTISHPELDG
Kind of test: Tet-inducible cAMP assay. Type of test: cell-based. The conditions noted are these: cAMP accumulation (HTRF), Flp-In-T-Rex-HEK293 cells expressing chimeric human/mouse GPR119, 50 min incubation; read-out: GPR119 EC50. As to the method:
The in vitro modulation of recombinant human GPR119 was determined as follows.
A human-mouse chimeric GPR119 expression construct encoding 3 copies of the FLAG epitope tag, the first 198 amino acids of human GPR119 and the C-terminal 137 amino acids of the mouse receptor was cloned into a tetracycline inducible vector pcDNA5/FRT/TO (Invitrogen #V6520-20), which includes a hygromycin-resistance marker. Tightly controlled receptor expression was achieved by stable integration of this construct into the genome of a specific host cell line, Flp-In-T-Rex-HEK293, expressing the tetracycline repressor (Invitrogen). Once a stable hygromycin-resistant cell line was generated, the cells were maintained at 37° C. in a humidified 5% CO2 atmosphere in culture medium consisting of Dulbecco's modified Eagle's medium (DMEM; Invitrogen #11960) supplemented with 2 mM L-glutamine, 10% fetal bovine serum, 200 μg/ml hygromycin B, and 15 μg/ml blasticidin.
Forty-eight hours prior to the cAMP accumulation assay, cells stably expressing the chimeric human/mouse GPR119 construct were seeded at a density of 4×10^3 cells/well in 384 well poly-D-lysine coated solid white plates (BD #35-6661) and grown at 37° C. in a humidified 5% CO2 atmosphere in culture medium supplemented with 1 μg/ml tetracycline to induce expression of the receptor. On the day of the assay, medium was removed and cells were incubated for 50 min. at 37° C. in a humidified 5% CO2 atmosphere in 20 μl/well of assay buffer (phosphate-buffered saline with Ca^2+ and Mg^2+, 12 mM glucose, 0.1 mM isobutyl-methyl-xanthine, 0.1% fatty-acid free bovine serum albumin) with the desired concentration of compound added from a concentrated stock dissolved in dimethyl sulfoxide (DMSO) to give a final concentration of 1% DMSO in the assay. cAMP accumulation was measured using the CisBio homogeneous time resolved fluorescence (HTRF) assay kit (#62AM2PEC) following the manufacturer's protocol. Briefly, 10 μl each of the cAMP-HTRF fluorescence detection reagents were added to each well, and the samples were incubated for 40 min. at room temperature. Fluorescence was excited at 320 nm and measured at 665 and 620 nm using the Envision instrument (Perkin Elmer), the fluorescence ratio of 665/620 was calculated and converted to nanomolar concentrations of cAMP in each well by interpolation from a cAMP standard curve. The concentration-response curves and EC50 values were calculated with a four parameter logistic curve fit equation utilizing Excel/XLfit software (Microsoft and IDBS). The EC50 value was calculated as the concentration of agonist which increased the cAMP concentration to a value halfway between the baseline and the maximum.
Compounds of the present invention were tested in the Tet-inducible cAMP assay described immediately above and the results shown in Table 2 below were obtained.

Turning to `CCCc1cnc(N2CCC(Oc3nc4ccc(C5=CCN(S(=O)(=O)CCC)CC5)cc4s3)CC2)nc1` [Example 1, 2-(1-(5-Propylpyrimidin-2-yl)piperidin-4-yloxy)-6-(1-(propylsulfonyl)-1,2,3,6-tetrahydropyridin-4-yl)benzo[d]thiazole], in test [1] (change in plasma glucose AUC vs vehicle at the minimally efficacious dose, oGTT, oral), the “Glucose Lowering (%)” value is reported as −39%. The “Minimally efficacious Dose” value in test [1] (oral administration 60 min before glucose load (2 g/kg), fasted male C57BL/6J mice) is recorded as 10 mg/kg.

In general, pEC50 refers to the negative decadic logarithm of the EC50, by convention in mol/L. Regarding `CCCc1cnc(N2CC[C@H](Oc3nc4ccc(C5=CCN(S(C)(=O)=O)CC5)cc4s3)C2)nc1` [Example 116], the pEC50 in test [2] is 7.66.

On to `CCCc1cnc(N2CCC(Oc3nc4ccc(C5=CCN(S(=O)(=O)CCN6CCCC6)CC5)cc4s3)CC2)nc1` [Example 134], for which, in test [2], the negative-log EC50 (pEC50) was 7.25.

Consider `CC(C)OC(=O)N1CCC(Oc2nc3ccc(C4=CCN(C(=O)OC(C)(C)C)CC4)cc3s2)CC1` [Example 301], for which the pEC50 in test [2] is 6.46.

For `CC(C)(O)CCS(=O)(=O)N1CCC(c2ccc3nc(OC4CCN(c5ncc(Cl)cn5)CC4)sc3c2)CC1` [Example 246], the negative logarithm of the EC50 (pEC50) in test [2] is 8.41.

On to `CCCc1cnc(N2CC[C@@H](Oc3nc4ccc(C5=CCN(S(C)(=O)=O)CC5)cc4s3)C2)nc1` [Example 84], for which, in test [2], the negative logarithm of the EC50 (pEC50) is 6.02.

Regarding `CCCc1cnc(N2CCC(Cc3nc4ccc(C5CCN(S(=O)(=O)CCC)CC5)cc4o3)CC2)nc1` [Example 147], in test [2], the pEC50 was 7.31.

Take `CCCc1cnc(N2CCC(Oc3nc4ccc(C5=CCN(S(=O)(=O)CCC6(O)CC6)CC5)cc4s3)CC2)nc1` [Example 131]: the negative-log EC50 (pEC50) in test [2] is 8.30.

Take `O=S(=O)(CCCO)N1CCN(c2ccc3nc(OC4CCN(c5ncc(F)cn5)CC4)sc3c2)CC1` [Example 221]: the negative-log EC50 (pEC50) in test [2] is 7.86.

With `CCCS(=O)(=O)N1CC=C(c2ccc3nc(OC4CCN(C(=O)c5csnn5)CC4)sc3c2)CC1` [Example 109], the pEC50 in test [2] was 7.43.
